Results published in paper PMC12257413, “Discovery of a Novel sp^3‑Rich M1 Positive Allosteric Modulators (PAMs) Chemotype via Scaffold Hopping” (ACS Medicinal Chemistry Letters, 2025).

Experiment: Intrinsic clearance in human hepatic microsomes, predicted hepatic clearance
Format: in vitro ADME
Settings: predicted hepatic clearance from human hepatic microsomes
Method: A similar approach was used to determine the degree of brain homogenate binding, which employed the same methodology and procedure with the following modifications: 1) a final compound concentration of 1 μM was used, 2) naïve rat brains were homogenized in DPBS (1:3 composition of brain: DPBS, w/w) using a Mini-Bead Beater™ machine in order to obtain brain homogenate, which was then treated in the same manner as the plasma samples in the previously described plasma protein binding assay. […]
same manner as the plasma samples in the previously described plasma protein binding assay. Fraction unbound for both plasma and brain samples was determined using Equation 4.
Equation 4 Determination of fraction unbound in plasma.
The diluted fraction unbound (fu2) in brain was calculated in the same manner by using brain homogenate rather than plasma. Undiluted fraction unbound for the brain was calculated using Equation 5 […]
Equation 5 Determination of fraction unbound in brain. […]
Human or rat hepatic microsomes (0.5 mg/mL) and 1 µM test compound were incubated in 100 mM potassium phosphate pH 7.4 buffer with 3 mM MgCl 2 at 37 °C with constant shaking. […] The in vitro half-life (1/2, min, Eq. 1), intrinsic clearance (CL int, mL/min/kg, Eq. 2), and subsequent predicted hepatic clearance (CLhep, mL/min/kg, Eq. 3) was determined employing the following equations: […]

Human CLHEP [mL/min/kg] | Structure (SMILES)
14.3 | Cn1cc(-c2ccc(Cc3cc(C(=O)N[C@H]4CCCC[C@@H]4O)nn3C3CCCC3)cc2)cn1 [17k]
6.7 | Cn1cc(-c2ccc(Cc3cc(C(=O)N[C@H]4CCOC[C@@H]4O)nn3C3CCCC3)cc2)cn1 [17g]
